Experiments:
Type in all cases: in vivo
[1] = test system: Surinam grass (Brachiaria decumbens); assay: Test B postemergence; conditions: 13 to 15 days
Summary of the method: (§1)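 Post-treatment, species sat 13–15 days under greenhouse conditions before visual scoring against controls, 0 (no effect) through 100 (complete control). Application preemergence to sown seeds or postemergence at 1- to 4-leaf stage, using a non-phytotoxic solvent/surfactant formulation.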

[2] = test system: barnyardgrass (Echinochloa crus-galli); assay: Test B postemergence; conditions: 13 to 15 days
Summary of the method: as §1

[3] = test system: blackgrass (Alopecurus myosuroides); assay: Test B postemergence; conditions: 13 to 15 days
Summary of the method: as §1

[4] = test system: cocklebur (Xanthium strumarium); assay: Test B postemergence; conditions: 13 to 15 days
Summary of the method: as §1

[5] = test system: corn (Zea mays); assay: Test B postemergence; conditions: 13 to 15 days
Summary of the method: as §1

[6] = test system: crabgrass (Digitaria sanguinalis); assay: Test B postemergence; conditions: 13 to 15 days
Summary of the method: as §1

[7] = test system: giant foxtail (Setaria faberii); assay: Test B postemergence; conditions: 13 to 15 days
Summary of the method: as §1

[8] = test system: lambsquarters (Chenopodium album); assay: Test B postemergence; conditions: 13 to 15 days
Summary of the method: as §1

[9] = test system: morning glory (Ipomoea hederacea); assay: Test B postemergence; conditions: 13 to 15 days
Summary of the method: as §1

[10] = test system: pigweed (Amaranthus retroflexus); assay: Test B postemergence; conditions: 13 to 15 days
Summary of the method: as §1

[11] = test system: velvetleaf (Abutilon theophrasti); assay: Test B postemergence; conditions: 13 to 15 days
Summary of the method: as §1

[12] = test system: wheat (Triticum aestivum); assay: Test B postemergence; conditions: 13 to 15 days
Summary of the method: as §1

[13] = test system: wild oat (Avena fatua); assay: Test B postemergence; conditions: 13 to 15 days
Summary of the method: as §1

[14] = test system: Surinam grass (Brachiaria decumbens); assay: Test B preemergence
Summary of the method: as §1

[15] = test system: barnyardgrass (Echinochloa crus-galli); assay: Test B preemergence
Summary of the method: as §1

[16] = test system: cocklebur (Xanthium strumarium); assay: Test B preemergence
Summary of the method: as §1

[17] = test system: corn (Zea mays); assay: Test B preemergence
Summary of the method: as §1

[18] = test system: crabgrass (Digitaria sanguinalis); assay: Test B preemergence
Summary of the method: as §1

[19] = test system: giant foxtail (Setaria faberii); assay: Test B preemergence
Summary of the method: as §1

[20] = test system: lambsquarters (Chenopodium album); assay: Test B preemergence
Summary of the method: as §1

[21] = test system: morning glory (Ipomoea hederacea); assay: Test B preemergence
Summary of the method: as §1

[22] = test system: pigweed (Amaranthus retroflexus); assay: Test B preemergence
Summary of the method: as §1

[23] = test system: rice (Oryza saliva); assay: Test B preemergence
Summary of the method: as §1

[24] = test system: velvetleaf (Abutilon theophrasti); assay: Test B preemergence
Summary of the method: as §1

[25] = test system: barnyardgrass (Echinochloa crus-galli); assay: Test C flooded paddy test; conditions: for Barnyardgrass plant response rating: Flooded Paddy, scale 0 to 100, 0 no effect, 100 complete control; for Plant response rating, Barnyardgrass: flooded paddy test, scale 0 to 100 (0 no effect, 100 complete control)
Summary of the method: (§2)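 Rice and three paddy weeds were grown to the 2-leaf stage under flooded conditions, then treated and kept in a greenhouse for 12–14 days. Response was rated visually against untreated controls on a 0–100 scale, where 100 is complete control.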

[26] = test system: duck salad (Heteranthera limosa); assay: Test C flooded paddy test; conditions: for Ducksalad plant response rating: Flooded Paddy, scale 0 to 100, 0 no effect, 100 complete control; for Plant response rating, Ducksalad: flooded paddy test, scale 0 to 100 (0 no effect, 100 complete control)
Summary of the method: as §2

[27] = test system: rice (Oryza saliva); assay: Test C flooded paddy test; conditions: for Rice plant response rating: Flooded Paddy, scale 0 to 100, 0 no effect, 100 complete control; for Plant response rating, Rice: flooded paddy test, scale 0 to 100 (0 no effect, 100 complete control)
Summary of the method: as §2

[28] = test system: smallflower flatsedge (Cyperus difformis); assay: Test C flooded paddy test; conditions: for Flatsedge plant response rating: Flooded Paddy, scale 0 to 100, 0 no effect, 100 complete control; for Plant response rating, Flatsedge: flooded paddy test, scale 0 to 100 (0 no effect, 100 complete control)
Summary of the method: as §2

[29] = Rate 125 g/ha, scale 0 (no effect) to 100 (complete control)
[30] = Rate 500 g/ha, scale 0 to 100, 0 is no effect, 100 is complete control
[31] = Preemergence, Rate 500 g/ha, scale 0 to 100, 0 no effect, 100 complete control
[32] = preemergence, Rate 125 g/ha, scale of 0 to 100 where 0 is no effect and 100 is complete control, 13 to 15 days

## Cc1cc(N2CCC(n3ccc(C(C)(C)C)n3)C2=O)cc(Br)c1C (stereo not shown) [Compound 77]
[1]; [29]
  Plant response rating, Surinam grass: 0
[1]; [30]
  Plant response rating, Surinam grass: 0
[2]; [29]
  Plant response rating, Barnyardgrass: 0
[2]; [30]
  Plant response rating, Barnyardgrass: 0
[3]; [29]
  Plant response rating, Blackgrass: 0
[3]; [30]
  Plant response rating, Blackgrass: 0
[4]; [29]
  Plant response rating, Cocklebur: 0
[4]; [30]
  Plant response rating, Cocklebur: 20
[5]; [29]
  Plant response rating, Corn: 0
[5]; [30]
  Plant response rating, Corn: 0
[6]; [29]
  Plant response rating, Crabgrass: 0
[6]; [30]
  Plant response rating, Crabgrass: 0
[7]; [29]
  Plant response rating, Foxtail, Giant: 0
[7]; [30]
  Plant response rating, Foxtail, Giant: 0
[8]; [29]
  Plant response rating, Lambsquarters: 0
[8]; [30]
  Plant response rating, Lambsquarters: 20
[9]; [29]
  Plant response rating, Morningglory: 0
[9]; [30]
  Plant response rating, Morningglory: 0
[10]; [29]
  Plant response rating, Pigweed: 70
[10]; [30]
  Plant response rating, Pigweed: 80
[11]; [29]
  Plant response rating, Velvetleaf: 0
[11]; [30]
  Plant response rating, Velvetleaf: 0
[12]; [29]
  Plant response rating, Wheat: 0
[12]; [30]
  Plant response rating, Wheat: 0
[13]; [29]
  Plant response rating, Wild Oat: 0
[13]; [30]
  Plant response rating, Wild Oat: 0
[14]; [31]
  Plant response rating, Surinam grass: 40
[14]; [32]
  Plant response rating, Surinam grass: 0
[15]; [31]
  Plant response rating, Barnyardgrass: 100
[15]; [32]
  Plant response rating, Barnyardgrass: 20
[16]; [31]
  Plant response rating, Cocklebur: 0
[16]; [32]
  Plant response rating, Cocklebur: 0
[17]; [31]
  Plant response rating, Corn: 0
[17]; [32]
  Plant response rating, Corn: 0
[18]; [31]
  Plant response rating, Crabgrass: 90
[18]; [32]
  Plant response rating, Crabgrass: 60
[19]; [31]
  Plant response rating, Foxtail, Giant: 0
[19]; [32]
  Plant response rating, Foxtail, Giant: 0
[20]; [31]
  Plant response rating, Lambsquarters: 100
[20]; [32]
  Plant response rating, Lambsquarters: 90
[21]; [31]
  Plant response rating, Morningglory: 0
[21]; [32]
  Plant response rating, Morningglory: 0
[22]; [31]
  Plant response rating, Pigweed: 100
[22]; [32]
  Plant response rating, Pigweed: 90
[23]; [31]
  Plant response rating, Rice: 0
[23]; [32]
  Plant response rating, Rice: 0
[24]; [31]
  Plant response rating, Velvetleaf: 0
[24]; [32]
  Plant response rating, Velvetleaf: 0
[25]; Rate 250 g/ha
  Barnyardgrass plant response rating: 0
[25]; Rate 500 g/ha
  Barnyardgrass plant response rating: 20
[25]; Rate 62 g/ha
  Plant response rating, Barnyardgrass: 0
[25]; Rate 125 g/ha
  Plant response rating, Barnyardgrass: 0
[26]; Rate 250 g/ha
  Ducksalad plant response rating: 0
[26]; Rate 500 g/ha
  Ducksalad plant response rating: 30
[26]; Rate 62 g/ha
  Plant response rating, Ducksalad: 0
[26]; Rate 125 g/ha
  Plant response rating, Ducksalad: 0
[27]; Rate 250 g/ha
  Rice plant response rating: 0
[27]; Rate 500 g/ha
  Rice plant response rating: 30
[27]; Rate 62 g/ha
  Plant response rating, Rice: 0
[27]; Rate 125 g/ha
  Plant response rating, Rice: 0
[28]; Rate 250 g/ha
  Flatsedge plant response rating: 80
[28]; Rate 500 g/ha
  Flatsedge plant response rating: 80
[28]; Rate 62 g/ha
  Plant response rating, Flatsedge: 70
[28]; Rate 125 g/ha
  Plant response rating, Flatsedge: 70

Source: patent publication US7138361B2, “Herbicidal heterocycles” (E. I. du Pont de Nemours and Company, priority 2000, dated 2006)
